Experiments:
[1] = Antagonist activity at PAR1 in human platelets assessed as inhibition of haTRAP-induced platelet aggregation
[2] = Antagonist activity at PAR1 in human platelets assessed as inhibition of thrombin-induced platelet aggregation

- IC50 [1]: 25 nM
- IC50 [2]: 47 nM
Compound: CCOC(=O)N[C@@H]1CC[C@@H]2[C@@H](C1)C[C@H]1C(=O)O[C@H](C)[C@H]1[C@H]2C=Cc1ccc(-c2cccc(F)c2)cn1 [Ethyl [(3aR,4aR,8aR,9aS)-9(S)-[(E)-2-[5-(3-fluorophenyl)-2-pyridinyl]ethenyl]dodecahydro-1(R)-methyl-3-oxonaphtho[2,3-c]furan-6(R)-yl]carbamate]
